Data taken from US12599592B2, “Therapeutic small molecules for treatment of pulmonary hypertension” (UNIVERSITY OF PITTSBURGH—OF THE COMMONWEALTH SYSTEM OF …, priority 2020, dated 2026).
Where a SMILES comes first, the peptide text is derived from it. The star is where a group is joined. Cbz = O=C(OCc1ccccc1)*

Key:
[1] = test system: Cluster 15 (C15) genes incl. LGALS8; test: RT-qPCR of Cluster 15 gene expression in PAECs; format: cell-based, human; details: PAECs + IL-1β; for IL-1β-induced expression changes in Cluster 15 members SLC9A3R1, LGALS3: 500 nM
Protocol: (§1) Human recombinant galectin-8 (1305-GA-050) was purchased from R&D Systems and was used at a working concentration of 30 nM.
RT-qPCR analysis: Cells were lysis in 1 ml of QiaZol reagent (Qiagen). Total RNA content was extracted using the RNeasy kit (Qiagen), according to the manufacturer's instructions. Total RNA concentration was determined using a BioTek Synergy multimode plate reader. Messenger RNAs were reverse transcribed to generate cDNA using the Multiscript RT kit (Thermo Fisher Scientific). cDNA for specific gene targets was amplified and quantified via fluorescently-labeled Taqman primer sets and Taqman fast advanced master mix (Thermo Fisher Scientific) using an Applied Biosystems QuantStudio 6 Flex Real-Time PCR System.

[2] = test system: PAECs; test: Mitochondrial superoxide by MitoSOX Red flow cytometry in PAECs; format: cell-based, human
Description: (§2) Cell culture: Primary human pulmonary artery endothelial cells (PAECs) and human pulmonary artery smooth muscle cells (PASMCs) were purchased from Lonza (302-05A, CC-2581). Of note, the same two male donors were the source of all PAECs in the experiments shown. Two additional male donors were the source for all PASMCs in the experiments shown. Cells from these and any donors were characterized by flow cytometry for consistent expression of cell surface markers and by RNA (RT-qPCR) analysis of endothelial and smooth muscle gene expression. PAECs were cultured in EGM-2 media (CC-3121) along with supplements (CC-4133), and PASMCs were cultured in SmGM-2 culture media (Lonza, CC-3182) at 5% CO2 in a humidified incubator.
as §1
(§3) For hypoxia exposure, cells were plated in 6-well cell culture plates at 1×10^5 cells/well, grown for 24 hr and placed into a normobaric hypoxia chamber (1% O2) for 24 h under specific treatment conditions. Namely, for I-BET and siLGALS8 exposures, cells were either pre-treated with I-BET/vehicle control (VC) or transfected with siLgals8/Scr for 24 h. Then, they were cultured in basal media at 1% 02. After 24 h, caspase activity and mitochondrial superoxide levels were quantified. To detect activation status of pSTAT1/STAT1 by immunoblot, cells were exposed to 8 h of hypoxia.
Flow cytometry detection of mitochondrial superoxide: For measuring mitochondrial superoxide, cells were incubated with 5 μM of MitoSOX Red mitochondrial superoxide indicator (Thermo Fisher Scientific) for 10 min in 37° C. CO2 incubator. Next, cells were washed with 1×PBS, trypsinized, and fluorescence (488 nm/580 nm) was measured on flow analyzer (BD LSR FORTESSA or BD LSRII) using BD […] software.

[3] = test system: PAECs; test: Apoptosis by caspase-3/7 activity in PAECs; format: cell-based, human
Description: as §2, §1, §3
(§4) In IL-6/sIL-6R+hypoxia experiments, a human recombinant IL-6/IL-6R alpha protein chimera (25 ng/ml, Millipore) was administered at 70-80% confluency for 48 h in complete media along with vehicle control (DMSO, Sigma-41639). BRD2889 (1 uM) vs. vehicle control were added, as indicated, and placed into a hypoxia chamber for 24 h. The hypoxia chamber (modular incubator chamber) was obtained from Billups-Rothenberg Inc. (Del Mar, Calif) and placed in regulated CO2 incubator at 37° C.
Cellular apoptosis: Caspase-3/7 activity was quantified using the Caspase-Glo 3/7 Assay (Promega), according to manufacturer's instructions. Caspase-3/7 activity was normalized to total protein content determined by BCA method (Thermo Fisher Scientific).

[4] = test system: chronically hypoxic mice; test: Hypoxia-induced pulmonary hypertension mouse model
Description: Animal models: For the hypoxia-induced pulmonary hypertension mice, male C57BL/6J mice (8 weeks old) (RRID:IMSR_JAX:000664) were purchased from Jackson laboratory and acclimatized for 3-4 days in this facility. Subsequently, mice scheduled for normoxic vs. hypoxic exposure were maintained in either normoxia or a normobaric hypoxia chamber for 1 or 3 weeks (OxyCycler, Biospherix Ltd.), where consistent exposure to 10% oxygen and control for temperature and humidity were possible. For testing the activity of I-BET in hypoxia-induced pulmonary hypertension mice, three experimental groups—normoxia+VC (vehicle control), hypoxia+VC (vehicle control), and hypoxia+I-BET were used.
I-BET was dissolved in DMSO at 100× concentration and then made into a working solution in 20% PEG400 and 80% 1×PBS. BRD2889 was made into a working solution of 2.5% DMSO.
Male and female 8 week old Lgals8−/− mice were exposed to hypoxia for 3 weeks. Littermates were used as wildtype (WT) control when comparing with knockout mice.
Immunofluorescent staining: Cryostat sections were cut from OCT-embedded lung tissues at 5-10 μm and mounted on gelatin-coated histological slides. Slides were thawed at room temperature for 10-20 min and rehydrated in wash buffer for 10 minutes. All sections were blocked in 10% donkey serum and exposed to primary antibody and Alexa 488, 568 and 647-conjugated secondary antibodies (Thermo Fisher Scientific). The following primary antibodies were used: Lgals8 (Ab69631, Abcam; 1/200), IL-1β (ab9722, Abcam; 1/200), GSTP1 (ab153949, Abcam; 1:100), ISCU (14812-1-AP, Proteintech; 1:100), cleaved caspase 3 (cs-9661, Cell Signaling; 1/400), α-SMA (F3777, Sigma; 1/200) and CD31 (ab7388, Abcam; 1/200). Images were obtained using Nikon A1 confocal microscope with 40× objective. Small pulmonary vessels (10 vessels/section) that were not associated with bronchial airways were selected for analysis. Intensity of staining was quantified using ImageJ software (NIH). Degree of pulmonary arteriolar muscularization was assessed in OCT lung sections stained for α-SMA by calculation of the proportion of fully and partially muscularized peripheral (<100 μm diameter) pulmonary arteriole to total peripheral pulmonary arterioles (Bertero T et al. J Clin Invest. 2014, 124, 3514-3528).

[5] = test system: Cluster 15 (C15) genes; test: RT-qPCR of Cluster 15 gene expression in PASMCs; format: cell-based, human; details: PASMCs + IL-1β
Description: as §2, §1
RT-qPCR analysis: Cells were lysis in 1 ml of QiaZol reagent (Qiagen). […] Total RNA concentration was determined using a BioTek Synergy multimode plate reader. Messenger RNAs were reverse transcribed to generate cDNA using the Multiscript RT kit (Thermo Fisher Scientific). cDNA for specific gene targets was amplified and quantified via fluorescently-labeled Taqman primer sets and Taqman fast advanced master mix (Thermo Fisher Scientific) using an Applied Biosystems QuantStudio 6 Flex Real-Time PCR System.

[6] = test system: SU5416-hypoxic pulmonary arterial hypertension rats; test: SU5416-hypoxia pulmonary arterial hypertension rat model; format: in vivo, Sprague-Dawley rats
Protocol: Briefly, 10 week old male Sprague-Dawley rats were injected i.p. with 20 mg/kg of SU5416 (Sigma), placed in normobaric hypoxia (10% O2) for 3 weeks and then transferred to normoxia for 2 weeks. During hypoxic exposure, chambers were opened twice a week for cleaning and replenishment of food and water. […] For BRD2889 vs. vehicle control dosing, i.p. injections every 5 days (5 mg/kg) were administered during the final two weeks of normoxia. Oxygen concentrations were continuously monitored with blood gas analyzers.
Following euthanasia, right ventricle/[left ventricle+septum]
Measurement of GST activity: The GST activity from lung tissue and PAECs was assayed using GST assay kit (Cayman, MI, USA) per the manufacturer's instructions.
Rodent echocardiography: Echocardiography was performed using a 15-45 MHz transthoracic transducer and a Visual Sonics Vevo 3100 system (Fujifilm). Inhaled isoflurane anesthesia was used at 2% in 100% O2 during positioning and hair removal and then decreased to isoflurane 0.8% during imaging.

[7] = test system: PAECs; test: Global transcriptome microarray in PAECs; format: cell-based, human; details: IL-1β +/- I-BET762, microarray
Description: The gene expression was normalized with Robust Multiarray Analysis (RMA). For BRD2889, the same approach was employed using Affymetrix Clariom S array on RNA isolated from PAECs treated with BRD2889 or vehicle and subjected to either hypoxia or normoxia. Differentially expressed genes were defined as any gene for which the FDR adjusted p-value was below 0.05 (n=3/grp). Reversed genes were further defined as those genes that were differentially expressed in both (hypoxia versus normoxia) and in (hypoxia+BRD2889 versus hypoxia)+vehicle as well as were regulated in opposite directions. Similarly, for I-BET that were differentially expressed in IL-1β+VC versus control and IL-1β+I-BET versus IL-1β+VC and were regulated in opposite directions. The data for both I-BET and BRD2889 have been submitted to the NCBI Gene Expression Omnibus with accession numbers GSE125508 and GSE160255, respectively.

[8] = test system: LGALS8; test: Immunoblot and densitometry of LGALS8 isoforms in PAECs; format: cell-based, human; details: PAECs + IL-1β
Protocol: as §1
(§5) Immunoblot and densitometry: Cells were lysed in RIPA buffer (Sigma) along with 1× protease inhibitor cocktail (Sigma). Protein lysate was resolved by gradient 4%-15% SDS-PAGE gels and transferred onto a 0.2 μm PVDF membrane (Bio-Rad). Membranes were blocked in 5% non-fat milk in 1×PBST buffer for one hour at room temperature. Later, they were incubated in the presence of the primary antibody overnight at 4° C. and then appropriate HRP-conjugated secondary antibodies (Life Technologies). The following antibodies were used: human LGALS8 (AF1305, RnD Systems), mouse/rat Lgals8 (ab69631, Abcam), pSTAT1 (ab29045, Abcam) and STAT1 (ab47425, Abcam), GSTP1 (ab153949, Abcam), ISCU (14812-1-AP, Prointech), Glutathione (ab19534, Abcam), HIF2A (NB100-122, Novous), α-Tubulin (CP06, Millipore sigma), and ACTB (sc-47778, Santa Cruz). The immunoreactive bands were visualized with the Chemidoc XRS+system (Bio-Rad) using SuperSignal West Femto chemiluminescent substrates (Thermo Fisher Scientific). The images were later quantified using AlphaEaseFC software (Alpha Innotech).

[9] = test system: ISCU; test: Immunoblot of ISCU and GSTP1 in PAECs; format: cell-based, human; details: hypoxic PAECs, MG132 5 mM, 2 h
Protocol: as §3, §4
(§6) Protein stability assay: The proteasome inhibitor MG132 (M7449, Sigma) was stored at −20° C. at a concentration of 10 mM diluted in dimethyl sulfoxide (DMSO). PAECs were exposed to MG132 ([…]) vs. DMSO vehicle control for 2 hr under hypoxia, prior to harvesting of cellular lysate for immunoblotting.
as §5

[10] = test system: glutathionylated ISCU; test: ISCU glutathionylation by immunoprecipitation and immunoblot in PAECs; format: cell-based, human; details: hypoxic PAECs, MG132 5 mM, 2 h
Protocol: as §6
Immunoblot and densitometry: Cells were lysed in RIPA buffer (Sigma) along with 1× protease inhibitor cocktail (Sigma). Protein lysate was resolved by gradient 4%-15% SDS-PAGE gels and transferred onto a 0.2 μm PVDF membrane (Bio-Rad). Membranes were blocked in 5% non-fat milk in 1×PBST buffer for one hour at room temperature. Later, they were incubated in the presence of the primary antibody overnight at 4° C. and then appropriate HRP-conjugated secondary antibodies (Life Technologies). […] The images were later quantified using AlphaEaseFC software (Alpha Innotech).
Immunoprecipitation: PAECs were transfected with the indicated combinations of siRNAs by Lipofectamine 2000 (Thermo Fisher Scientific) according to the manufacturer's instructions and/or treated with BRD2889 ([…], 24 h). […] After extensive washing, the immunoprecipitated proteins were analyzed by immunoblotting with the indicated antibodies.

[11] = test system: normal, non-transformed cells; liver and kidney; details: literature report; cited from earlier work
[12] = molecular target: glutathione S-transferase pi 1 (GSTP1) (Homo sapiens, UniProt P09211); details: literature report; cited from earlier work
[13] = PAECs + IL-1β 10 ng/ml 48 h, I-BET762 500 nM vs vehicle
[14] = PAECs, hypoxia 1% O2 24 h, I-BET pre-treatment
[15] = I-BET762 30 mg/kg daily oral gavage, chronic hypoxia
[16] = I-BET762 30 mg/kg i.p. daily, Days 21-35
[17] = IL-1β-exposed (48 h) PAECs treated with I-BET and rhGal8 (24 h)
[18] = PAECs, rhGal8 alone (30 nM, 24 h)

Chain of glutathione S-transferase pi 1 (GSTP1) (P09211 whole entry, species assumed): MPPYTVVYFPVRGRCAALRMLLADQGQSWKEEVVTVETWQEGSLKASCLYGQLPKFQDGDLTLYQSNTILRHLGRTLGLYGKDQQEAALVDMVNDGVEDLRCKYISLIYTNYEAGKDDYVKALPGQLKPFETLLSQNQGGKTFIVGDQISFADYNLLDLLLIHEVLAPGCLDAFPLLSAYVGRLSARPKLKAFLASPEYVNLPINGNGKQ

COc1cc2c(cc1-c1c(C)noc1C)ncc1[nH]c(=O)n([C@H](C)c3ccccn3)c12 [I-BET151]
IL-1β-induced expression changes in Cluster 15 members SLC9A3R1, LGALS3 [1]: reversed

CCNC(=O)C[C@@H]1N=C(c2ccc(Cl)cc2)c2cc(OC)ccc2-n2c(C)nnc21 [I-BET762]
LGALS8-L transcript [1]: reversed | LGALS8-M transcript [1]: not altered | IL-1β-induced expression changes in Cluster 15 members SLC9A3R1, LGALS3 [1]: reversed | expression of C15 genes LGALS3, LGALS8, ABCC4, CD47, SLC9A3R1, DAG1 ([1]; I-BET762 500 nM): reversed | extent of reversal of C15 genes LGALS3, LGALS8, DAG1, SLC9A3R1 ([1]; I-BET762 500 nM): near complete reversal | mitochondrial superoxide (O2-) levels [2, 13]: reduced the IL-1β-dependent increase | mitochondrial superoxide levels [2, 14]: reversed the hypoxia-induced increases | apoptosis (caspase-3/7 activity) [3, 13]: reduced the IL-1β-dependent increase | apoptosis (caspase-3/7 activity) [3, 14]: reversed the hypoxia-induced increases | heart rate [4, 15]: without significant effect | pulmonary vascular LGALS8, including in endothelial cells [4, 15]: robustly decreased | pulmonary vascular muscularization (α-SMA stain) [4, 15]: reduced | right ventricular systolic pressure (RVSP) [4, 15]: reduced | downstream apoptosis (cleaved caspase-3) ([4]; hypoxic mice, most notable at early stage (1 week hypoxia)): reduced downstream apoptosis | LGALS8 in normoxic mice ([4]; normoxic mice, similar dosing, mean±SEM, vehicle 1±0.02, p=NS): 1.08±0.03 fold change | alteration and reversal of C15 genes including LGALS8 [5]: not observed | LGALS8 in pulmonary arterioles (immunofluorescence) [6, 16]: decreased | arteriolar muscularization [6, 16]: reduced | cleaved caspase-3 (CC-3) in pulmonary arterioles [6, 16]: decreased | right ventricular systolic pressure (RVSP) [6, 16]: reduced | left ventricular function (LVPW thickness, LVEF, LVFS; echocardiography) ([6]; I-BET762 vs vehicle): did not exhibit altered left ventricular function | number of genes altered by IL-1β vs vehicle and reversed by drug [7]: 524 genes | LGALS8-L protein (immunoblot) [8]: reversed the IL-1β-induced increase of the L isoform

CC(C)C[C@@H](C=O)NC(=O)[C@H](CC(C)C)NC(=O)[C@H](CC(C)C)NC(=O)OCc1ccccc1 [MG132, reference compound] (Cbz-Leu-Leu-Leu-aldehyde)
ISCU protein [9]: reversed the hypoxic down-regulation | GSTP1 or ISCU glutathionylation [10]: without affecting

COc1cc(/C=C/C(=O)N2CCC=CC2=O)cc(OC)c1OC [piperlongumine, reference compound]
toxicity to normal, non-transformed cells [11]: minimal toxicity | inhibition of GSTP1 [12]: reported to inhibit

B1: rhGal8: recombinant human galectin-8 (R&D Systems 1305-GA-050) (protein, UniProt O00214 1-317, looked up)
Galectin-8: MMLSLNNLQNIIYNPVIPFVGTIPDQLDPGTLIVIRGHVPSDADRFQVDLQNGSSMKPRADVAFHFNPRFKRAGCIVCNTLINEKWGREEITYDTPFKREKSFEIVIMVLKDKFQVAVNGKHTLLYGHRIGPEKIDTLGIYGKVNIHSIGFSFSSDLQSTQASSLELTEISRENVPKSGTPQLRLPFAARLNTPMGPGRTVVVKGEVNANAKSFNVDLLAGKSKDIALHLNPRLNIKAFVRNSFLQESWGEEERNITSFPFSPGMYFEMIIYCDVREFKVAVNGVHSLEYKHRFKELSSIDTLEINGDIHLLEVRSW
I-BET-induced attenuation of IL-1β-specific mitochondrial superoxide [2, 17]: reduced the ability of I-BET to decrease | mitochondrial superoxide [2, 18]: no effect | I-BET-induced attenuation of IL-1β-specific apoptosis (caspase 3/7) [3, 17]: reduced the ability of I-BET to decrease | apoptosis (caspase 3/7 activity) [3, 18]: no effect
